ChEMBL document CHEMBL2413030, “Multimerized CHR-derived peptides as HIV-1 fusion inhibitors” (Bioorg Med Chem, 2013)
Square brackets hold non-standard residues; d marks the D form. Nle = CCCC[C@H](N)C(=O)O

Columns and labels:
[1] = Cytotoxicity against human TZM-bl cells by MTS assay; assay type: cell-based
[2] = tested on: Human immunodeficiency virus 1; test: Antiviral activity against HIV1 NL4-3 assessed as inhibition of viral fusion with human TZM-bl cells after 48 hrs by steady glo luciferase reporter gene assay; assay type: functional, organism-based; settings: Human immunodeficiency virus 1, NL4-3, TZM-bl

| Substance | CC50 [1] | IC50 [2] |
| --- | --- | --- |
| H-W[Nle]EWDRKIEEYTKKIEELIKKSQEQQEKNEKELKREREREG-OH | > 5000 nM | 1.82 nM |
| enfuvirtide | > 5000 nM | 45.2 nM |
